# Patent publication US8680012B2, “4-phenyl-pyrane-3,5-diones,4-phenyl-thiopyrane-3,6-diones and cyclohexanetriones as novel herbicides” (Syngenta Crop Protection LLC, priority 2006, dated 2014)
# Test system: Alopecurus myosuroides (ALOMY)
# Test: Example B pre-emergence herbicidal activity, glasshouse pot test
# Type: in vivo
# Settings: 312 h, rate 250 g/ha, evaluated after 13 days, read-out: Pre-emergence activity ALOMY (100=total damage to plant; 0=no damage to plant)
# Experimental: (§1) Seeds of a variety of test species were sown in standard soil in pots. After cultivation for one day (pre-emergence) or after 8 days cultivation (post-emergence) under controlled conditions in a glasshouse (at 24/16° C., day/night; 14 hours light; 65% humidity), the plants were sprayed with an aqueous spray solution derived from the formulation of the technical active ingredient in acetone/water (50:50) solution containing 0.5% Tween 20 (polyoxyethelyene sorbitan monolaurate, CAS RN 9005-64-5). The test plants were then grown in a glasshouse under controlled conditions in a glasshouse (at 24/16° C., day/night; 14 hours light; 65% humidity) and watered twice daily. After 13 days for pre and post-emergence, the test was evaluated (100=total damage to plant; 0=no damage to plant).
# (§2) Alopecurus myosuroides (ALOMY), Avena fatua (AVEFA), Setaria faberi (SETFA), Echinochloa crus-galli (ECHCG), Solanum nigrum (SOLNI) and Amaranthus retroflexus (AMARE)
row,SMILES,pest or weed control at 250 g/ha [%]
1,"CCOC[C@]12CC[C@H](O1)C(=O)C(c1cc(-c3ccc(Cl)cc3)ccc1CC)=C2O (single isomer, unassigned) [Compound A-124]",50
2,"CCc1ccc(-c2ccc(Cl)c(F)c2)cc1C1=C(O)[C@@]2(C)CC[C@H](O2)C1=O (single isomer, unassigned) [Compound A-125]",70
3,Cc1ccc(-c2cnc(N)nc2)cc1C1=C(O)C(C)(C)OC(C)(C)C1=O [Compound A-104],0
4,Cc1ccc(-c2cc[n+]([O-])cc2)cc1C1=C(O)C(C)(C)OC(C)(C)C1=O [Compound A-105],0

# Test system: Amaranthus retroflexus (AMARE)
# Test: as above
# Type: in vivo
# Settings: 312 h, rate 250 g/ha, evaluated after 13 days, read-out: Pre-emergence activity AMARE (100=total damage to plant; 0=no damage to plant)
# Experimental: as §1, §2
row,SMILES,pest or weed control at 250 g/ha [%]
1,"CCOC[C@]12CC[C@H](O1)C(=O)C(c1cc(-c3ccc(Cl)cc3)ccc1CC)=C2O (single isomer, unassigned) [Compound A-124]",0
2,"CCc1ccc(-c2ccc(Cl)c(F)c2)cc1C1=C(O)[C@@]2(C)CC[C@H](O2)C1=O (single isomer, unassigned) [Compound A-125]",0
3,Cc1ccc(-c2cnc(N)nc2)cc1C1=C(O)C(C)(C)OC(C)(C)C1=O [Compound A-104],0
4,Cc1ccc(-c2cc[n+]([O-])cc2)cc1C1=C(O)C(C)(C)OC(C)(C)C1=O [Compound A-105],0

# Test system: Avena fatua (AVEFA)
# Test: as above
# Type: in vivo
# Settings: 312 h, rate 250 g/ha, evaluated after 13 days, read-out: Pre-emergence activity AVEFA (100=total damage to plant; 0=no damage to plant)
# Experimental: as §1, §2
row,SMILES,pest or weed control at 250 g/ha [%]
1,"CCOC[C@]12CC[C@H](O1)C(=O)C(c1cc(-c3ccc(Cl)cc3)ccc1CC)=C2O (single isomer, unassigned) [Compound A-124]",60
2,"CCc1ccc(-c2ccc(Cl)c(F)c2)cc1C1=C(O)[C@@]2(C)CC[C@H](O2)C1=O (single isomer, unassigned) [Compound A-125]",80
3,Cc1ccc(-c2cnc(N)nc2)cc1C1=C(O)C(C)(C)OC(C)(C)C1=O [Compound A-104],0
4,Cc1ccc(-c2cc[n+]([O-])cc2)cc1C1=C(O)C(C)(C)OC(C)(C)C1=O [Compound A-105],0

# Test system: Echinochloa crus-galli (ECHCG)
# Test: as above
# Type: in vivo
# Settings: 312 h, rate 250 g/ha, evaluated after 13 days, read-out: Pre-emergence activity ECHCG (100=total damage to plant; 0=no damage to plant)
# Experimental: as §1, §2
row,SMILES,pest or weed control at 250 g/ha [%]
1,"CCOC[C@]12CC[C@H](O1)C(=O)C(c1cc(-c3ccc(Cl)cc3)ccc1CC)=C2O (single isomer, unassigned) [Compound A-124]",70
2,"CCc1ccc(-c2ccc(Cl)c(F)c2)cc1C1=C(O)[C@@]2(C)CC[C@H](O2)C1=O (single isomer, unassigned) [Compound A-125]",90
3,Cc1ccc(-c2cnc(N)nc2)cc1C1=C(O)C(C)(C)OC(C)(C)C1=O [Compound A-104],0
4,Cc1ccc(-c2cc[n+]([O-])cc2)cc1C1=C(O)C(C)(C)OC(C)(C)C1=O [Compound A-105],0

# Test system: Setaria faberi (SETFA)
# Test: as above
# Type: in vivo
# Settings: 312 h, rate 250 g/ha, evaluated after 13 days, read-out: Pre-emergence activity SETFA (100=total damage to plant; 0=no damage to plant)
# Experimental: as §1, §2
row,SMILES,pest or weed control at 250 g/ha [%]
1,"CCOC[C@]12CC[C@H](O1)C(=O)C(c1cc(-c3ccc(Cl)cc3)ccc1CC)=C2O (single isomer, unassigned) [Compound A-124]",100
2,"CCc1ccc(-c2ccc(Cl)c(F)c2)cc1C1=C(O)[C@@]2(C)CC[C@H](O2)C1=O (single isomer, unassigned) [Compound A-125]",100
3,Cc1ccc(-c2cnc(N)nc2)cc1C1=C(O)C(C)(C)OC(C)(C)C1=O [Compound A-104],0
4,Cc1ccc(-c2cc[n+]([O-])cc2)cc1C1=C(O)C(C)(C)OC(C)(C)C1=O [Compound A-105],0

# Test system: Alopecurus myosuroides (ALOMY)
# Test: Example B post-emergence herbicidal activity, glasshouse pot test
# Type: in vivo
# Settings: 312 h, rate 250 g/ha, evaluated after 13 days, read-out: Post-emergence activity ALOMY (100=total damage to plant; 0=no damage to plant)
# Experimental: as §1, §2
row,SMILES,pest or weed control at 250 g/ha [%]
1,"CCOC[C@]12CC[C@H](O1)C(=O)C(c1cc(-c3ccc(Cl)cc3)ccc1CC)=C2O (single isomer, unassigned) [Compound A-124]",80
2,"CCc1ccc(-c2ccc(Cl)c(F)c2)cc1C1=C(O)[C@@]2(C)CC[C@H](O2)C1=O (single isomer, unassigned) [Compound A-125]",100

# Test system: Amaranthus retroflexus (AMARE)
# Test: as above
# Type: in vivo
# Settings: 312 h, rate 250 g/ha, evaluated after 13 days, read-out: Post-emergence activity AMARE (100=total damage to plant; 0=no damage to plant)
# Experimental: as §1, §2
row,SMILES,pest or weed control at 250 g/ha [%]
1,"CCOC[C@]12CC[C@H](O1)C(=O)C(c1cc(-c3ccc(Cl)cc3)ccc1CC)=C2O (single isomer, unassigned) [Compound A-124]",20
2,"CCc1ccc(-c2ccc(Cl)c(F)c2)cc1C1=C(O)[C@@]2(C)CC[C@H](O2)C1=O (single isomer, unassigned) [Compound A-125]",0

# Test system: Avena fatua (AVEFA)
# Test: as above
# Type: in vivo
# Settings: 312 h, rate 250 g/ha, evaluated after 13 days, read-out: Post-emergence activity AVEFA (100=total damage to plant; 0=no damage to plant)
# Experimental: as §1, §2
row,SMILES,pest or weed control at 250 g/ha [%]
1,"CCOC[C@]12CC[C@H](O1)C(=O)C(c1cc(-c3ccc(Cl)cc3)ccc1CC)=C2O (single isomer, unassigned) [Compound A-124]",90
2,"CCc1ccc(-c2ccc(Cl)c(F)c2)cc1C1=C(O)[C@@]2(C)CC[C@H](O2)C1=O (single isomer, unassigned) [Compound A-125]",90

# Test system: Echinochloa crus-galli (ECHCG)
# Test: as above
# Type: in vivo
# Settings: 312 h, rate 250 g/ha, evaluated after 13 days, read-out: Post-emergence activity ECHCG (100=total damage to plant; 0=no damage to plant)
# Experimental: as §1, §2
row,SMILES,pest or weed control at 250 g/ha [%]
1,"CCOC[C@]12CC[C@H](O1)C(=O)C(c1cc(-c3ccc(Cl)cc3)ccc1CC)=C2O (single isomer, unassigned) [Compound A-124]",100
2,"CCc1ccc(-c2ccc(Cl)c(F)c2)cc1C1=C(O)[C@@]2(C)CC[C@H](O2)C1=O (single isomer, unassigned) [Compound A-125]",100

# Test system: Setaria faberi (SETFA)
# Test: as above
# Type: in vivo
# Settings: 312 h, rate 250 g/ha, evaluated after 13 days, read-out: Post-emergence activity SETFA (100=total damage to plant; 0=no damage to plant)
# Experimental: as §1, §2
row,SMILES,pest or weed control at 250 g/ha [%]
1,"CCOC[C@]12CC[C@H](O1)C(=O)C(c1cc(-c3ccc(Cl)cc3)ccc1CC)=C2O (single isomer, unassigned) [Compound A-124]",100
2,"CCc1ccc(-c2ccc(Cl)c(F)c2)cc1C1=C(O)[C@@]2(C)CC[C@H](O2)C1=O (single isomer, unassigned) [Compound A-125]",100
